Measured values taken from patent publication US10851400B2, “Assay for high-throughput identification of therapeutic compounds” (priority 2016, dated 2020).
Values after ≈ are worked out from the molar mass of the structure shown.

Assays:
E. coli (ATCC 25922) = test: PLAD assay, zone of inhibition around beads in soft agar
[1] = system: Acinetobacter baumanii, ATCC 19606; test: Broth minimum inhibitory concentration (MIC) assay of K15; format: cell-based, Acinetobacter baumannii; settings: A. baumannii; broth MIC in CAMHB, 18-24 hours
Description: (§1) Peptoid K15 was analyzed via a traditional broth minimum inhibitor concentration (MIC) assay against seven different ESKAPE pathogens (Acinetobacter baumanii, ATCC 19606; Enterococcus faecalis, ATCC 29212; Enterococcus faecium, ATCC 19434; Escherichia coli, ATCC 25922; Klebsiella pneumoniae, ATCC 700603; Pseudomonas aeruginosa, ATCC 27853; Staphylococcus aureus, ATCC 29213). For each of the bacterial strains screened in the ESKAPE panel, 1-3 isolated colonies were collected from a TSA plate by a flame sanitized wire loop and resuspended in 5 mL of TSB. The solutions were incubated at 37° C. for 18-24 hours. After the growth period, the turbidity was measured at 600 nm and adjusted to an optical density of 0.08-0.13 by diluting with TSB for an approximate concentration of 1×10^8 CFU/mL. Once the desired OD was achieved, 20 μL of the bacteria suspension were diluted 1:20 in 380 μL Cation Adjusted Mueller-Hinton broth (CAMHB) for a final concentration of 5×10^6 CFU/mL.
(§2) 4 μL of a 10 mM stock of K15 were diluted in […] CAMHB for each bacterial strain assayed (a total of 28 μL stock in 2.478 mL broth for ESKAPE panel). […]
(§3) The prepared plates were incubated for another 18-24 hours. Their respective absorbance at 600 nm was analyzed on a SpectraMax M5 Plate Reader. […] Absorbance at 555, 570, and 585 nm was analyzed to determine viable cells having survived treatment by the antimicrobial compound. […]

ESKAPE pathogens = test: Broth MIC assay of K15 against the panel of seven ESKAPE pathogens; format: cell-based; settings: seven pathogens tested
Description: as §1, §2, §3

[2] = system: Enterococcus faecium, ATCC 19434; test: Broth minimum inhibitory concentration (MIC) assay of K15; format: cell-based; settings: E. faecium; broth MIC in CAMHB, 18-24 hours
Description: as §1, §2, §3

`CCCCCCCCCCCCCNCC(=O)N(CCN)CC(=O)N(CC(N)=O)C(C)c1ccccc1` (stereo not drawn) [K15, NTri-Nae-NPea] was tested, and the zone of inhibition (E. coli (ATCC 25922); proof-of-concept library on PLAD linker, 14 mM TCEP, 37° C. for 18 hours) was “largest average zone of inhibition”, the MIC [1] was 25 µg/mL (≈ 48.3 µM) and the “antimicrobial efficacy against the ESKAPE pathogens” value (ESKAPE pathogens) was “modest efficacy against six of the seven pathogens tested”. It also gave an MIC [2] of 25 µg/mL (≈ 48.3 µM).
“NTri-NLys-NPea-NPea-NLys [C134mer, reference compound]” was tested, and the zone of inhibition (E. coli (ATCC 25922); PLAD linked C134mer beads, DTT, BME or TCEP at 0, 2, 6, 10, and 14 mM) was “concentration dependent zones of inhibition”.
